Experiments:
[1] = system: db/db mice; assay: Investigation with db/db mice (blood glucose and lipids); format: in vivo, mouse; conditions: for Glucose Diff. D o − D 12 / HDL-cholesterol Diff. D o − D 12 / Total cholesterol Diff. D o − D 12 / Triglycerides Diff. D o − D 12: change day 0 to day 12; for Glucose D o / HDL-cholesterol D o / Total cholesterol D o / Triglycerides D o: day 0; for Glucose D 12 / HDL-cholesterol D 12 / Total cholesterol D 12 / Triglycerides D 12: day 12; for Glucose D-4 / HDL-cholesterol D-4 / Total cholesterol D-4 / Triglycerides D-4: day −4
Protocol: The following compounds are investigated and compared to placebo (vehicle control).
The mentioned 3 compounds are tested in db/db mice during a time when diabetes is in a rapid developing stage. […] Each dosage group and the vehicle group comprise 7 mice. The suspensions used are prepared with peroxide free arachis oil as vehicle. Blood samples are collected by retro-orbital bleeding at days −4, 0 and 12. The blood levels of glucose, triglycerides, total cholesterol, and HDL-cholesterol are determined.
For evaluation of efficacy, the difference between the values of glucose, triglycerides, total cholesterol and HDL-cholesterol changing from day 0 to day 12 is determined and expressed in %. […] Overall evaluation consists in determining the efficacy of the compounds by calculating the whole extent of the effect expressed in %. […] This value is considered as a valuable indicator for the efficacy of the investigated compounds administered in a tolerated dose.

[2] = system: skin of mice; assay: Topical administration to the skin of mice (irritation); format: in vivo; conditions: concentrations up to 2.5%
[3] = system: myeloperoxidase (MPO) activity; assay: Acute inflammation of mouse ears, MPO activity; format: in vivo, C57BL/6 mice; conditions: 4 d
Protocol: […] mice of the C57BL/6 strain are used. Inflammation is induced on mouse ears with either AtRA, 9-cis RA or TPA by topical application. Inflammation is measured objectively by determination of the activity of myeloperoxidase (MPO) being directly correlated to the infiltration of polymorphonuclear white blood cells and by the determination of mRNA expression of c-jun, a protein implicated in the AP-1 transduction pathway according to known methods, see e.g. P. L. Stanley et al., Skin Pharmacol. 4, 262-271 (1991) (MPO assay), N. Basset-Sequin et al., J. Invest. Dermatol. 94, 418-422 (1990), F. J. Rauscher et al., Cell 52, 471-480 […], P. Sassone-Corn et al., Nature 326, 507-510 (1987), and M. Pfahl, Endocr. Rev. 14, 651-658, 1993, which are incorporated by reference regarding the experimental method.
In the “acute inflammation” test, mice are treated topically (epicutaneously), orally or intraperitoneally, daily for 4 days. In the “semi chronic inflammation” test, mice are treated topically according to the schedules given below. For each experiment, a group of at least 4 mice of both sexes are used in the defined condition, regarding placebo, vehicle control, compound, topical formulation, oral formulation, dosage and concentration. The topical vehicle consists of ethanol/PEG 400/water (3:1:1).
The anti-inflammatory effect of topical RXR antagonist compound 15 is tested by determination of myeloperoxidase activity in % of vehicle treated controls. For induction of inflammation 9-cis RA or TPA are applied topically to the skin, daily for 4 days. The RXR antagonist compound 15 (see Table 1) is administered topically one hour after the application of the inflammation inducing agent. The mice are sacrified 24 hours after the last treatment.

[4] = system: synovial fibroblasts; assay: In vitro cartilage degradation by synovial fibroblasts (sGAG release); format: cell-based, human; conditions: for sGAG release: 14 days
Protocol: Furthermore, it is determined whether this is accompanied by a modulation in the accumulation of the mRNA encoding catabolic enzyme matrix metalloproteinase-1 (MMP-1), responsible for degradation of human cartilage and consequently joint destruction in man. Adherent synovial fluid cells taken from a patient with RA are used after 5 passages in an in vitro assay for cartilage destruction. The cells incubated in flasks coated with 0.1% (0.1 g/100 ml) human cartilage powder are fixed using Matrigel® (BD Biosciences, Becton, Dickinson & Co., Boston, Mass., USA). The release of sulphated glycosaminoglycan (sGAG) into the culture medium is monitored by a commercial colorimetric test according to a method described by S. Björnsson, see Anal. […] This is conducted in the presence or absence of IL-1β (100 pg/ml).

[5] = 30 mg/kg/day group versus vehicle group

CCCCOc1c(\C(C)=C/C=C/C(C)=C/C(=O)O)cc(C(C)(C)C)cc1C(C)(C)C [Compound 15, (2E,4E,6Z)-7-[2-butoxy-3,5-bis(1,1-dimethylethyl)phenyl]-3-methyl-2,4,6-octatrienoic acid]
Glucose Diff. D o − D 12 ([1]; 0.3 mg/kg/day i.p.): +20.8% | HDL-cholesterol Diff. D o − D 12 ([1]; 0.3 mg/kg/day i.p.): −5.0% | Total cholesterol Diff. D o − D 12 ([1]; 0.3 mg/kg/day i.p.): −5.7% | Triglycerides Diff. D o − D 12 ([1]; 0.3 mg/kg/day i.p.): −0.6% | Glucose D o ([1]; 0.3 mg/kg/day i.p.): 226 mg/dL | HDL-cholesterol D o ([1]; 0.3 mg/kg/day i.p.): 3.00 mmol/L | Total cholesterol D o ([1]; 0.3 mg/kg/day i.p.): 4.05 mmol/L | Triglycerides D o ([1]; 0.3 mg/kg/day i.p.): 1.78 mmol/L | Glucose D 12 ([1]; 0.3 mg/kg/day i.p.): 273 mg/dL | HDL-cholesterol D 12 ([1]; 0.3 mg/kg/day i.p.): 2.85 mmol/L | Total cholesterol D 12 ([1]; 0.3 mg/kg/day i.p.): 3.82 mmol/L | Triglycerides D 12 ([1]; 0.3 mg/kg/day i.p.): 1.77 mmol/L | Glucose D-4 ([1]; 0.3 mg/kg/day i.p.): 153 mg/dL | HDL-cholesterol D-4 ([1]; 0.3 mg/kg/day i.p.): 2.43 mmol/L | Total cholesterol D-4 ([1]; 0.3 mg/kg/day i.p.): 4.52 mmol/L | Triglycerides D-4 ([1]; 0.3 mg/kg/day i.p.): 2.28 mmol/L | Glucose levels (in words) ([1]; 3 mg/kg/day): markedly lowers glucose levels | HDL-cholesterol levels (in words) ([1]; 3 mg/kg/day): markedly raised | Triglyceride levels (in words) ([1]; 3 mg/kg/day): markedly decreasing | Glucose Diff. D o − D 12 ([1]; 3.0 mg/kg/day i.p.): +4.1% | HDL-cholesterol Diff. D o − D 12 ([1]; 3.0 mg/kg/day i.p.): +18.4% | Total cholesterol Diff. D o − D 12 ([1]; 3.0 mg/kg/day i.p.): −11.1% | Triglycerides Diff. D o − D 12 ([1]; 3.0 mg/kg/day i.p.): −44.9% | Glucose D o ([1]; 3.0 mg/kg/day i.p.): 270 mg/dL | HDL-cholesterol D o ([1]; 3.0 mg/kg/day i.p.): 2.88 mmol/L | Total cholesterol D o ([1]; 3.0 mg/kg/day i.p.): 3.95 mmol/L | Triglycerides D o ([1]; 3.0 mg/kg/day i.p.): 2.16 mmol/L | Glucose D 12 ([1]; 3.0 mg/kg/day i.p.): 281 mg/dL | HDL-cholesterol D 12 ([1]; 3.0 mg/kg/day i.p.): 3.41 mmol/L | Total cholesterol D 12 ([1]; 3.0 mg/kg/day i.p.): 4.39 mmol/L | Triglycerides D 12 ([1]; 3.0 mg/kg/day i.p.): 1.19 mmol/L | Glucose D-4 ([1]; 3.0 mg/kg/day i.p.): 192 mg/dL | HDL-cholesterol D-4 ([1]; 3.0 mg/kg/day i.p.): 2.47 mmol/L | Total cholesterol D-4 ([1]; 3.0 mg/kg/day i.p.): 4.62 mmol/L | Triglycerides D-4 ([1]; 3.0 mg/kg/day i.p.): 2.15 mmol/L | Glucose levels (in words) ([1]; 30 mg/kg/day): decrease markedly | HDL-cholesterol levels (in words) ([1]; 30 mg/kg/day): markedly increased | Total cholesterol levels (in words) ([1]; 30 mg/kg/day): slightly higher | Triglyceride levels (in words) ([1]; 30 mg/kg/day): very strongly | Overall extent of the effect on blood levels of Glucose [1, 5]: −58.0% | Overall extent of the effect on blood levels of HDL-cholesterol [1, 5]: +14.2% | Overall extent of the effect on blood levels of Total cholesterol [1, 5]: +14.9% | Overall extent of the effect on blood levels of Triglycerides [1, 5]: −73.0% | Glucose Diff. D o − D 12 ([1]; 30 mg/kg/day i.p.): −8.8% | HDL-cholesterol Diff. D o − D 12 ([1]; 30 mg/kg/day i.p.): +10.4% | Total cholesterol Diff. D o − D 12 ([1]; 30 mg/kg/day i.p.): +6.1% | Triglycerides Diff. D o − D 12 ([1]; 30 mg/kg/day i.p.): −50.9% | Glucose D o ([1]; 30 mg/kg/day i.p.): 294 mg/dL | HDL-cholesterol D o ([1]; 30 mg/kg/day i.p.): 3.07 mmol/L | Total cholesterol D o ([1]; 30 mg/kg/day i.p.): 4.27 mmol/L | Triglycerides D o ([1]; 30 mg/kg/day i.p.): 2.18 mmol/L | Glucose D 12 ([1]; 30 mg/kg/day i.p.): 268 mg/dL | HDL-cholesterol D 12 ([1]; 30 mg/kg/day i.p.): 3.39 mmol/L | Total cholesterol D 12 ([1]; 30 mg/kg/day i.p.): 4.53 mmol/L | Triglycerides D 12 ([1]; 30 mg/kg/day i.p.): 1.07 mmol/L | Glucose D-4 ([1]; 30 mg/kg/day i.p.): 184 mg/dL | HDL-cholesterol D-4 ([1]; 30 mg/kg/day i.p.): 2.45 mmol/L | Total cholesterol D-4 ([1]; 30 mg/kg/day i.p.): 3.98 mmol/L | Triglycerides D-4 ([1]; 30 mg/kg/day i.p.): 1.85 mmol/L | Irritation or inflammation of the skin [2]: does not lead to irritation or inflammation of the skin | MPO activity (% vehicle treated mice) ([3]; 9-cis RA 0.05% + test compound 0.05% topical): 236 ± 92 % vehicle treated mice | MPO activity (% vehicle treated mice) ([3]; TPA 0.005% + test compound 0.05% topical): 163 ± 25 % vehicle treated mice | MPO activity (% vehicle treated mice) ([3]; TPA 0.005% + test compound 2.5% topical): 142 ± 18 % vehicle treated mice | Effect on cartilage destruction in vitro (in words) ([4]; absence of IL-1β): no effect on the basal activity of synovial fibroblast | sGAG release ([4]; absence of IL-1β, 10^−7 M): 39 µg/mL | sGAG release ([4]; absence of IL-1β, 10^−8 M): 57 µg/mL | Cumulative sGAG ([4]; absence of IL-1β, 10^−8 M, day 7): 44 µg/mL | Cumulative sGAG ([4]; absence of IL-1β, 10^−8 M, day 14): 57 µg/mL | Cumulative sGAG ([4]; absence of IL-1β, 10^−8 M, day 21): 57 µg/mL | Cumulative sGAG ([4]; absence of IL-1β, 10^−8 M, day 28): 39 µg/mL | Cumulative sGAG ([4]; absence of IL-1β, 10^−8 M, day 35): 34 µg/mL | sGAG release ([4]; absence of IL-1β, 10^−9 M): 46 µg/mL | sGAG release ([4]; presence of 100 pg/ml IL-1β, 10^−7 M): 41 µg/mL | sGAG release ([4]; presence of 100 pg/ml IL-1β, 10^−8 M): 89 µg/mL | Cumulative sGAG ([4]; presence of 100 pg/ml IL-1β, 10^−8 M, day 7): 67 µg/mL | Cumulative sGAG ([4]; presence of 100 pg/ml IL-1β, 10^−8 M, day 14): 89 µg/mL | Cumulative sGAG ([4]; presence of 100 pg/ml IL-1β, 10^−8 M, day 21): 89 µg/mL | Cumulative sGAG ([4]; presence of 100 pg/ml IL-1β, 10^−8 M, day 28): 173 µg/mL | Cumulative sGAG ([4]; presence of 100 pg/ml IL-1β, 10^−8 M, day 35): 56 µg/mL | sGAG release ([4]; presence of 100 pg/ml IL-1β, 10^−9 M): 144 µg/mL | Effect on cartilage destruction in vitro (in words) ([4]; presence of IL-1β): markedly inhibits the IL-1β dependent cartilage destruction
